{Fethoc} = N-terminal Fethoc capping group (publication's abbreviation); [C(1O2)] = modified PNA monomer acting as cytosine, C(pOq) type, 1O2; [A(5)] = modified PNA monomer acting as adenine, A(p) type, p=5; [A(6)] = modified PNA monomer acting as adenine, A(p) type, p=6; {NH2} = C-terminal non-substituted amino (amide) group
Experiments:
[1] = tested on: mdx mice; assay: Grip test in mdx mice chronically administered; type: in vivo, mouse; details: mdx mice, 10, 50 or 200 pmole/Kg subcutaneous chronic, Week 0 to 30
Procedure: “DMD-ASO 1” was evaluated by chronically administering to mdx mice for its ability to improve muscle function by grip test, to induce exon skipping, to upregulate the expression of the full-length dystrophin (i.e., dystrophin protein with the C-terminus encoded) by IHC, and to improve the muscular integrity by histopathology with H&E staining as described below.
[Grouping & ASO Treatment] Male mdx mice (7 weeks old) were randomly assigned to 4 groups of 0 (mdx negative control), 10, 50, and 200 pmole/Kg “DMD-ASO 1” based on individual grip strength scores by grip test. (N=12 per group) A satellite group of 12 male C57BL/6 mice (7 weeks old) was included in this study as the wild type negative control group for the full-length dystrophin expression level.
The 50 and 200 pmole/Kg group subcutaneously received “DMD-ASO 1” as dissolved in PBS, 2× per week until the final sacrifice in Week 43. In the meantime, the 10 pmole/Kg group subcutaneously received “DMD-ASO 1” initially 2× per week during Week 0 to 8, and 3× per week afterwards to increase the ASO exposure.
[Muscle Function by Grip Test] Muscle function was evaluated on a weekly basis by grip strength on a grip strength-meter (Cat. Number 47,200, Ugo Basile) according to the literature. [J. Appl. […] The grip strength scores by group were evaluated for statistical significance by student's t-test against the mdx negative control group.

[2] = tested on: HIF-1α mRNA; assay: HIF-1α nested qPCR by SYBR Green in HeLa cells; type: cell-based, human; details: 3 hours
Procedure: “HIF-ASO 2” was evaluated by nested qPCR for its ability to inhibit the expression of the full-length HIF-1α mRNA in HeLa cells as follows. [Cell Culture & ASO Treatment] HeLa cells grown in 60 mm culture dish containing 5 mL medium were treated with “ASO 2” at 0 (negative control), 10, 100 or 1,000 zM (2 culture dishes per each ASO concentration). [RNA Extraction] 3 hours after the ASO treatment, total RNA was extracted with “MiniBEST Universal RNA Extraction Kit” (Cat. Number 9767, Takara) according to the manufacturer's instructions. [cDNA Synthesis by One Step RT-PCR] […] NO: 37); HIF-exon 8_reverse: (5'→3') […] [Nested qPCR] […] NO: 39); HIF-exon 2n_reverse (5'→3') […] NO: 40); HIF-exon 3n_forward (5'→3') […] NO: 41); HIF-exon 3n_reverse (5'→3') […] NO: 42); HIF-exon 4n_forward (5'→3') […] NO: 43); HIF-exon 4n_reverse (5'→3') […] NO: 44); HIF-exon 5n_forward (5'→3') […] NO: 45); HIF-exon 5n_reverse (5'→3') […] NO: 46). […] “HIF-ASO 6” was evaluated for its ability to induce a change in HIF-1α mRNA in HeLa cells by nested qPCR according to the procedures in “HIF-1α Example 4” unless noted otherwise. [cDNA Synthesis by One Step RT-PCR] […] NO: 50); HIF-exon 8(2) reverse: (5'→3') […] “HIF-ASO 12” was evaluated by HIF-1α nested qPCR for its ability to induce a change in the HIF-1a mRNA in HeLa cells as described in “HIF-1a Example 3”, unless noted otherwise. HeLa cells were treated with “HIF-ASO 12” for 6 hours, and then subjected to total RNA extraction.

[3] = tested on: HIF-1α protein; assay: HIF-1α western blot in HeLa cells; type: cell-based, human; details: 24 hours
Procedure: “HIF-ASO 2” was evaluated for its ability to inhibit the expression of HIF-1α protein in HeLa cells as described below.
[Cell Culture & ASO Treatment] HeLa cells grown in 60 mm culture dish containing 5 mL culture medium were treated with “HIF-ASO 2” at 0 zM (negative control), 10 zM, 100 zM, 1 aM, or 10 aM.
[CoCl2 Treatment and Cell Lysis] 24 hours after the ASO treatment, the culture dishes except for the one without ASO treatment were treated with 200 μM CoCl2 for another 3 hours to upregulate the HIF-1α protein level by suppressing the activity of prolylhydroxylases (PHDs). Then the cells were washed 2× with 1 mL cold PBS, and subjected to lysis on ice with 200 μL 1×RIPA buffer (Cat. Number 9806, Cell Signaling Tech) supplemented with 1% SDS and 1× proteinase inhibitor cocktail (cOmplete Mini, Roche). Each lysate was collected in 1.5 mL e-tube, mixed with 100 μL 5× sample buffer, and boiled for 5 min at 100° C. The lysates were subjected to electrophoretic separation on an 8% SDS-PAGE gel, and transferred onto a 0.45 μm PVDF membrane. The membrane was probed with an anti-HIF-1α antibody (Cat. Number 610958, BD Biosciences) and an anti-β-actin antibody (Cat. Number sc4778, Santa Cruz).
FIG. 19B is a western blot data obtained with HeLa cells treated with “HIF-ASO 6” at 0 (negative control), 10, 100 or 1,000 zM for 24 hours. FIG. 19C provides the individual HIF-1α band intensities normalized against each individual β-actin band intensity by densitometry. The expression of HIF-1α protein decreased by ca 45-55% in the cells treated with “HIF-ASO 6”.
“HIF-ASO 1” was evaluated for its ability to inhibit the HIF-1α protein expression in HeLa cells according to the procedures described in “HIF-1α Example 2” unless noted otherwise. In this example, HeLa cells were treated with “HIF-ASO 1” at 0 zM (negative control), 100 zM, 300 zM, 1 aM, 3 aM, 10 aM, 30 aM, 100 aM or 300 aM for 72 hours prior to suppressing the activity of PHDs by an incubation with 200 μM CoCl2 for 3 hours. There were 4 culture dishes of the negative control, i.e., 0 zM “HIF-ASO 1”.
[ASO Treatment] […]

Substance	increase of grip strength compared to the mdx negative control group [1]	decrease of individual HIF-1α exon levels (SYBR Green) ([2]; HeLa cells, 10 zM) [%]	decrease of individual HIF-1α exon levels (SYBR Green) ([2]; HeLa cells, 100 zM) [%]	decrease of individual HIF-1α exon levels (SYBR Green) ([2]; HeLa cells, 1,000 zM (1 aM))	decrease of HIF-1α protein expression (western blot, normalized against β-actin) ([3]; HeLa cells, 10, 100 or 1,000 zM)	decrease of HIF-1α protein expression (western blot, normalized against β-actin) ([3]; HeLa cells, 10 aM, then 200 μM CoCl2 3 hours) [%]
Fethoc-A(5)GA-G(6)CC(1O2)-TCA-A(5)AA(5)-T-NH2 (antisense AGAGCCTCAAAAT; Fethoc N-cap, C-terminal amide, chemistry not fully specified) [DMD-ASO 1]	30-50%					
Fethoc-A(6)GA-A(6)CT-TA(6)T-CC(1O2)T-A(6)CT-TA(6)-NH2 (AGAACTTATCCTACTTA; splice-switching; all peptide nucleic acid (PNA), [A(6)] at 1, 4, 8, 13, 17, [C(1O2)] at 11, 5' {Fethoc}, 3' {NH2}; peptide nucleic acid backbone) [HIF-ASO 6]		35	~30	~45%	45-55%	
Fethoc-GA(5)A-C(1O2)TT-A(5)TC-CTA(5)-C(1O2)T-NH2 (GAACTTATCCTACT; splice-switching; all peptide nucleic acid (PNA), [A(5)] at 2, 7, 12, [C(1O2)] at 4, 13, 5' {Fethoc}, 3' {NH2}; peptide nucleic acid backbone) [HIF-ASO 2]				not different from the exon levels in the cells without ASO treatment		~75

Source: US12624068B2, “Exon skipping by peptide nucleic acid derivatives” (OliPass Corporation, priority 2016, dated 2026)
